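Interpolation was linear, between the two tested concentrations surrounding the appropriate level; five concentrations were tested over 48 hours in 96-well plates. Abbreviation: GI50, concentration required for 50% inhibition of growth. TGI: concentration producing complete growth inhibition.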
Experiments:
Assay in all cases: NCI anticancer screen, dose series, 48 h
HCT-116 colon = tested on: HCT-116 colon
NCI-H460 lung = tested on: NCI-H460 lung
HT29 colon = tested on: HT29 colon
UO-31 renal = tested on: UO-31 renal
NCI-H23 lung = tested on: NCI-H23 lung
SNB-19 CNS = tested on: SNB-19 CNS
SW-620 colon = tested on: SW-620 colon
HCC-2998 colon = tested on: HCC-2998 colon
OVCAR-4 ovarian = tested on: OVCAR-4 ovarian
RPMI-8226 leukemia = tested on: RPMI-8226 leukemia

Row | Structure (SMILES) | TGI (HCT-116 colon) | TGI (NCI-H460 lung) | TGI (HT29 colon) | TGI (UO-31 renal) | TGI (NCI-H23 lung) | TGI (SNB-19 CNS) | TGI (SW-620 colon) | TGI (HCC-2998 colon) | TGI (OVCAR-4 ovarian) | GI50 (HCT-116 colon) | GI50 (NCI-H460 lung) | GI50 (HT29 colon) | GI50 (UO-31 renal) | GI50 (NCI-H23 lung) | GI50 (SNB-19 CNS) | GI50 (SW-620 colon) | GI50 (HCC-2998 colon) | GI50 (OVCAR-4 ovarian) | TGI (RPMI-8226 leukemia) | GI50 (RPMI-8226 leukemia)
1 | Cc1cc(Cl)ccc1N1C(=O)C(=O)C(c2nc3ccccc3o2)C(=O)C1=O | > 100 µM | > 100 µM | > 100 µM | > 100 µM | > 100 µM | > 100 µM | > 100 µM | > 100 µM | > 100 µM | – | – | – | – | – | – | – | – | – | – | –
2 | O=c1oc2c(cc1-c1ccccc1)C(O)Oc1ccccc1-2 (stereo not given) | 34.6 µM | > 100 µM | > 100 µM | 52.3 µM | 25 µM | > 100 µM | > 100 µM | 19.3 µM | 70.6 µM | 3.9 µM | 4.12 µM | 3.21 µM | 11.5 µM | 7.94 µM | 6.38 µM | 4.37 µM | 3.55 µM | 14.8 µM | – | –
3 | CCOC(=O)N1CCc2cc(OC)c(OC)cc2/C1=C/c1ccc(OC)c(OC)c1 | > 100 µM | – | 98.4 µM | > 100 µM | > 100 µM | > 100 µM | > 100 µM | > 100 µM | – | – | – | – | – | – | – | – | – | – | 56.5 µM | –
4 | COc1ccc(C2N3CCCCC3[C@@H]3c4[nH]c5ccccc5c4CCN23)c(OC)c1 (stereo not given in full) | 38 µM | 50.2 µM | 32.6 µM | 74.1 µM | 58.7 µM | > 100 µM | > 100 µM | – | 56.5 µM | – | – | – | – | – | – | – | – | – | 45.6 µM | –
5 | NC(=NCCO)c1ccc(N2CCCN(c3ccc(C(N)=NCCO)cc3)CC2)cc1 | > 100 µM | – | > 100 µM | – | > 100 µM | > 100 µM | – | > 100 µM | > 100 µM | > 100 µM | – | > 100 µM | – | > 100 µM | > 100 µM | – | > 100 µM | > 100 µM | – | –
6 | Nc1cc(N)cc(Cc2ccccc2)c1 | > 100 µM | > 100 µM | > 100 µM | > 100 µM | > 100 µM | > 100 µM | > 100 µM | > 100 µM | > 100 µM | – | – | – | – | – | – | – | – | – | – | –
7 | Cc1cccc2cc3cccc(C(=O)NCCN(C)C)c3nc12 | 1.54 µM | 0.312 µM | 3.94 µM | 0.552 µM | 1.17 µM | 6.06 µM | 10.5 µM | 1.48 µM | 2.32 µM | – | – | – | – | – | – | – | – | – | – | –
8 | Oc1c(Cl)cc(CN(Cc2cc(Cl)c(O)c(Cl)c2)C2CCCCC2)cc1Cl | > 100 µM | > 100 µM | > 100 µM | > 100 µM | > 100 µM | > 100 µM | > 100 µM | – | > 100 µM | – | – | – | – | – | – | – | – | – | > 100 µM | –
9 | COc1cc2c(c(OC)c1OC)C(=O)c1c-2n(CCCN=[N+]=[N-])c(=O)c2cc([N+](=O)[O-])ccc12 | > 100 µM | > 100 µM | > 100 µM | > 100 µM | > 100 µM | > 100 µM | > 100 µM | > 100 µM | > 100 µM | 36.1 µM | 58.2 µM | > 100 µM | 69.7 µM | 50.8 µM | 72.6 µM | > 100 µM | > 100 µM | 46.8 µM | – | –
10 | C=C(CN(C)Cc1ccccc1)c1ccc(C(=O)Nc2ccccc2N)cc1 | 21.9 µM | > 50 µM | – | 8.41 µM | 7.93 µM | 43.2 µM | > 50 µM | – | > 50 µM | 8.6 µM | 19.9 µM | – | 2.08 µM | 0.397 µM | 6.47 µM | 6.08 µM | – | 8.28 µM | > 50 µM | 1.46 µM
11 | COC(=O)C1=CO[C@@H](OC2OC(CO)C(O)C(O)C2O)[C@@H]2[C@H](C)[C@@H](O)[C@@H](O)[C@]12O (stereo not given in full) | > 100 µM | – | > 100 µM | > 100 µM | > 100 µM | > 100 µM | > 100 µM | > 100 µM | – | – | – | – | – | – | – | – | – | – | > 100 µM | –
12 | COC(=O)[C@@H]1[C@H](O)[C@H](C)[C@H](O)[C@H](C)/C=C\C=C(C)C(=O)Nc2c(C)c(OC(C)=O)c3c(c2O)C(=O)C(C)=C2OCOC(=C23)C(C)=C[C@@](C)(O)[C@H](O)[C@@H](C)[C@H]1OC(C)=O | 48.6 µM | – | > 100 µM | > 100 µM | > 100 µM | > 100 µM | > 100 µM | – | > 100 µM | – | – | – | – | – | – | – | – | – | 56.9 µM | –
13 | Cc1ccc(S(=O)(=O)NNC(C[N+](=O)[O-])c2ccccc2)cc1 (stereo not given) | > 100 µM | 45.1 µM | 3.99 µM | 48.6 µM | > 100 µM | 30.4 µM | > 100 µM | – | 32.1 µM | – | – | – | – | – | – | – | – | – | > 100 µM | –
14 | Cc1cc(S(=O)(=O)Nc2nc3ccccc3[nH]2)c(SCc2ccccc2)cc1Cl | > 100 µM | > 100 µM | – | > 100 µM | > 100 µM | > 100 µM | > 100 µM | > 100 µM | – | 51.6 µM | > 100 µM | – | > 100 µM | 54.9 µM | 36 µM | > 100 µM | 21.4 µM | – | > 100 µM | 28.9 µM
15 | CN(C)CCCN1c2ccc(O)cc2Sc2ccc(Cl)cc21 | 20.1 µM | 14.5 µM | 14.7 µM | 21.7 µM | 34 µM | 27.6 µM | 39.6 µM | – | 25.5 µM | – | – | – | – | – | – | – | – | – | 21.9 µM | –
16 | CNC1=CC(=O)C2=C(C1=O)C1C3=C(C(=O)C(Br)=C(OC)C3=O)C2c2ccccc21 (stereo not given) | 5.7 µM | > 50 µM | > 50 µM | 5.87 µM | 16 µM | 11.6 µM | > 50 µM | – | 15.6 µM | 1.87 µM | 11.1 µM | 2.71 µM | 1.98 µM | 4.44 µM | 2.82 µM | 2.88 µM | – | 2.3 µM | > 50 µM | 2.27 µM
17 | O=C1[C@@H]2C(c3ccncc3)=NO[C@@H]2C(=O)N1c1ccc(Cc2ccc(N3C(=O)[C@H]4C(c5ccncc5)=NO[C@H]4C3=O)cc2)cc1 | – | > 100 µM | > 100 µM | > 100 µM | > 100 µM | – | > 100 µM | > 100 µM | > 100 µM | – | – | – | – | – | – | – | – | – | > 100 µM | –
18 | Cc1nc2ccccc2c(/C=C/c2ccccc2)c1C(=O)/C=C/c1ccc(Cl)cc1 | 1.81 µM | 3.29 µM | 6.36 µM | 2.55 µM | – | – | 5.72 µM | 3.35 µM | > 100 µM | 0.485 µM | 1.51 µM | 0.9 µM | 1.28 µM | – | – | 1.71 µM | 1.81 µM | 2.36 µM | 3.58 µM | 0.784 µM
19 | NCCn1cnc2nc(NC(=O)c3ccccc3)[nH]c(=O)c21 | > 100 µM | > 100 µM | > 100 µM | > 100 µM | > 100 µM | > 100 µM | > 100 µM | > 100 µM | – | – | – | – | – | – | – | – | – | – | > 100 µM | –
20 | COC(=O)c1ccc(NC(N)=NCC(C)(C)COc2ccc(C(F)(F)F)cc2)nc1 | – | 3.36 µM | 3.21 µM | 2.7 µM | 3.09 µM | – | – | – | – | – | 1.67 µM | 1.66 µM | 1.35 µM | 1.45 µM | – | – | – | – | 3.64 µM | 1.3 µM
21 | C/C=C/C=C/CCCCCCCCCCCCC[C@]1(OC)C=CC(CC(=O)OC)OO1 (stereo not given in full) | 29.6 µM | 46.8 µM | 48.1 µM | – | 36.8 µM | – | 33 µM | 47.9 µM | 25.9 µM | – | – | 21.9 µM | – | 19.1 µM | – | 16.7 µM | 24.3 µM | 12.5 µM | 49.2 µM | –
22 | O=C(NCCNC(=O)c1ccc(F)cc1)Nc1ccc(-n2cc(-c3ccncc3)c(-c3ccc(Cl)c(O)c3)n2)cc1 | 1.56 µM | 10.5 µM | 1.41 µM | > 100 µM | 7.77 µM | > 100 µM | > 100 µM | 2.85 µM | > 100 µM | 0.338 µM | 0.329 µM | 0.377 µM | 2.4 µM | 0.587 µM | 0.73 µM | 0.43 µM | 0.597 µM | 0.585 µM | – | –
23 | COc1ccc(/C(=C\c2cc(OC)c(OC)c(OC)c2)C(=O)O)cc1 | > 100 µM | > 100 µM | > 100 µM | 97.5 µM | – | > 100 µM | > 100 µM | – | > 100 µM | – | – | – | – | – | – | – | – | – | 84.6 µM | –
24 | OCC#CCCCCOCC#Cc1ccccc1C#CCOCCCCC#CCO | > 100 µM | > 100 µM | 63.6 µM | > 100 µM | 48.8 µM | > 100 µM | 50.9 µM | – | 53.9 µM | 22.5 µM | 31.3 µM | 21.2 µM | 55.5 µM | 23 µM | 28.9 µM | 21.9 µM | – | 14.8 µM | 87.8 µM | 29.3 µM
25 | Cc1ccc(N(/C=C/C(=O)C(F)(F)F)CC(=O)c2ccc(Cl)c(Cl)c2)cc1 | 17.7 µM | 21 µM | 17.9 µM | 19.1 µM | 21.9 µM | 25.5 µM | 15.2 µM | 14.8 µM | – | 4.3 µM | 8.73 µM | 4.73 µM | 5.77 µM | 10.3 µM | 12.9 µM | 2.88 µM | 1.45 µM | – | 27 µM | 10.8 µM
26 | Cc1ccc(S(=O)(=O)N[C@@H](Cc2ccccc2)C(=O)CCl)cc1 | > 100 µM | > 100 µM | > 100 µM | 39 µM | 51.4 µM | 47.2 µM | 59.4 µM | 21.8 µM | 42.6 µM | 12.9 µM | 21.8 µM | 24 µM | 16.3 µM | 20.5 µM | – | 10.2 µM | 1.03 µM | 16.6 µM | – | –
